Source: ChEMBL document CHEMBL1201862, “PubChem BioAssay data set” (2004)
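1) Cells in 96-well plates. 2) Compound, 48 h, 5 concentrations. 3) Linear interpolation between surrounding doses. 4) Unreached endpoint = highest concentration. The concentration for 50% growth inhibition is given as GI50.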 The source made the active and inactive calls. Cut-off read from the data, not from the text of the source: active = GI50 up to about 1.1 µM and inactive = higher.

Key:
Assay in all cases: growth of human tumour cells (NCI), 48 h
MDA-MB-435 = system: MDA-MB-435
EKVX = system: EKVX
A549 = system: A549
SF-539 = system: SF-539
T47D = system: T47D
SN12C = system: SN12C
ACHN = system: ACHN
UACC-257 = system: UACC-257
K562 = system: K562
NCI-H460 = system: NCI-H460
DU-145 = system: DU-145
NCI-H23 = system: NCI-H23
IGROV-1 = system: IGROV-1
SNB-19 = system: SNB-19
MDA-MB-231 = system: MDA-MB-231
HT-29 = system: HT-29
RXF 393 = system: RXF 393
KM12 = system: KM12
SR = system: SR
HCT-15 = system: HCT-15
CAKI-1 = system: CAKI-1
Hs-578T = system: Hs-578T
M14 = system: M14
CCRF-CEM = system: CCRF-CEM
RPMI-8226 = system: RPMI-8226
HCT-116 = system: HCT-116
SK-MEL-28 = system: SK-MEL-28
HOP-62 = system: HOP-62
SF-268 = system: SF-268
SK-MEL-5 = system: SK-MEL-5
TK-10 = system: TK-10
OVCAR-5 = system: OVCAR-5
OVCAR-8 = system: OVCAR-8
MDA-N = system: MDA-N
BT-549 = system: BT-549
SNB-75 = system: SNB-75
UACC-62 = system: UACC-62
SK-MEL-2 = system: SK-MEL-2
PC-3 = system: PC-3
SF-295 = system: SF-295
U-251 = system: U-251
HL-60 = system: HL-60
MOLT-4 = system: MOLT-4
SW-620 = system: SW-620
OVCAR-3 = system: OVCAR-3
A498 = system: A498
786-0 = system: 786-0
COLO 205 = system: COLO 205
UO-31 = system: UO-31
NCI/ADR-RES = system: NCI/ADR-RES
MCF7 = system: MCF7
NCI-H226 = system: NCI-H226

## NNc1nncc2[nH]nnc12
MDA-MB-435
  GI50: > 100 µM (inactive)
EKVX
  GI50: > 100 µM (inactive)
A549
  GI50: > 100 µM (inactive)
SF-539
  GI50: > 100 µM (inactive)
T47D
  GI50: > 100 µM (inactive)
SN12C
  GI50: > 100 µM (inactive)
ACHN
  GI50: > 100 µM (inactive)
UACC-257
  GI50: > 100 µM (inactive)
K562
  GI50: > 100 µM (inactive)
NCI-H460
  GI50: > 100 µM (inactive)
DU-145
  GI50: > 100 µM (inactive)
NCI-H23
  GI50: > 100 µM (inactive)
IGROV-1
  GI50: > 100 µM (inactive)
SNB-19
  GI50: > 100 µM (inactive)
MDA-MB-231
  GI50: > 100 µM (inactive)
HT-29
  GI50: > 100 µM (inactive)
RXF 393
  GI50: > 100 µM (inactive)
KM12
  GI50: > 100 µM (inactive)
SR
  GI50: 41.5 µM (inactive)
HCT-15
  GI50: > 100 µM
CAKI-1
  GI50: > 100 µM (inactive)
Hs-578T
  GI50: > 100 µM (inactive)
M14
  GI50: > 100 µM (inactive)
CCRF-CEM
  GI50: > 100 µM (inactive)
RPMI-8226
  GI50: > 100 µM (inactive)
HCT-116
  GI50: > 100 µM (inactive)
SK-MEL-28
  GI50: > 100 µM (inactive)
HOP-62
  GI50: > 100 µM (inactive)
SF-268
  GI50: > 100 µM (inactive)
SK-MEL-5
  GI50: > 10 µM (inactive)
TK-10
  GI50: > 100 µM (inactive)
OVCAR-5
  GI50: > 100 µM (inactive)
OVCAR-8
  GI50: > 100 µM (inactive)
MDA-N
  GI50: > 100 µM (inactive)
BT-549
  GI50: > 100 µM (inactive)
SNB-75
  GI50: 5.74 µM (inactive)
UACC-62
  GI50: > 100 µM (inactive)
SK-MEL-2
  GI50: > 100 µM (inactive)
PC-3
  GI50: > 100 µM (inactive)
SF-295
  GI50: > 100 µM (inactive)
U-251
  GI50: > 100 µM (inactive)
HL-60
  GI50: 48.1 µM (inactive)
MOLT-4
  GI50: > 100 µM (inactive)
SW-620
  GI50: > 100 µM (inactive)
OVCAR-3
  GI50: > 100 µM (inactive)
A498
  GI50: > 100 µM (inactive)
786-0
  GI50: > 100 µM (inactive)
COLO 205
  GI50: > 100 µM (inactive)
UO-31
  GI50: > 100 µM (inactive)
NCI/ADR-RES
  GI50: > 100 µM (inactive)
MCF7
  GI50: > 100 µM (inactive)
NCI-H226
  GI50: > 100 µM (inactive)
